One experiment concerns HCT15 cells. In words: HCT15 anti-proliferation / cell killing assay (CellTiter-Glo), with or without verapamil. The format is cell-based, human. Particulars: Homo sapiens. Here is the method: The cell line used in the anti-proliferation assays was HCT15, a human colon, colorectal carcinoma cell line. The HCT15 cells were grown in RPMI medium 1640+10% FBS. To run the assay, the cells (40 μL, 400 cells) were added to each well in a 384-well plate and incubated for twenty-four hours at 37° C. with 5% CO2. One hour before adding compounds, freshly dilute Verapamil to 0.2 mg/ml in ddH2O. Add 1 μL/well diluted Verapamil to Verapamil treatment wells and 1 μL/well ddH2O to the non-Verapamil treatment wells. Return plates to the incubator at 37° C. with 5% CO2. Then the cells were treated with test compounds at various concentrations using HPD300, and then normalize the DMSO to 0.5%. The control wells contained cells and the medium but lack the test compounds. The plates were incubated for 120 hours at 37° C. with 5% CO2. CTG reagent was then added to the wells (25 μL). After the plates were shaken for 10 min and then incubated for 10 min at room temperature, paste the clear bottom with white back seal and record luminescence with Envision. The inhibition % was calculated according to the following equation: inhibition %=[1−(assay-blank)/(control-blank)]×100.
A general note: In ATP-based viability assays light output follows the ATP content of the culture.

Another experiment has as its system SK-BR-3 cells. Briefly: SK-BR-3 anti-proliferation assay for payloads (CellTiter-Glo). The format is cell-based. Conditions: Homo sapiens, free payload, 120-144 h, read-out: SKBR3. Here is the method: The cell line used in the anti-proliferation assays was SK-BR-3, a human breast, adenocarcinoma (pleural effusion) cell line. The cells were grown in McCoy's 5a Medium+10% FBS. To run the assay for payloads, the cells (40 μL, 700 cells) were added to each well in a 384-well plate and incubated for 24 hours at 37° C. with 5% CO2. Then the cells were treated with test compounds at various concentrations using HPD300, and then normalize the DMSO to 0.5%. The control wells contain cells and the medium but lack the test compounds. The plates were incubated for 120 h at 37° C. with 5% CO2. To run the assay for ADCs and some key payloads, the cells (80 μL, 1000 cells) were added to each well in a 96-well plate and incubated for twenty-four hours at 37° C. with 5% CO2. Next, the ADCs or payloads were diluted with Opti-Mem with 0.1% BSA. The cells were treated with test compounds or ADCs (20 μL) at various concentrations in appropriate cell culture medium (total volume, 0.1 mL). The final concentration of DMSO was adjusted to 0.2% and the Opti-Mem with 0.1% BSA was adjusted to 5%. The control wells contained cells and the medium but lacked the test compounds. The plates were incubated for 144 h at 37° C. with 5% CO2. CTG reagent was then added to the wells (25 μL/384-well or 100 μL/96-well). After the plates were shaken for 10 min and then incubated for 10 min at room temperature, paste the clear bottom with white back seal and record luminescence with Envision. The inhibition % was calculated according to the following equation: inhibition %=[1-(assay-blank)/(control-blank)]×100.

The mark [1] stands for this setting: HCT15 cells, no verapamil, 120 h (5 days), read-out: HCT-15.
[2] abbreviates: HCT-15, HCT15 cells pre-treated with verapamil, 120 h, read-out: HCT-15 with verapamil.

Molecules are shown by their SMILES. Like-named read-outs stand apart in the source and are kept apart here.

For `CCCCCCN(C(=O)[C@@H](NC(=O)[C@H]1CCCCN1C)[C@@H](C)CC)[C@H](C[C@@H](OC(C)=O)c1nc(C(=O)N[C@@H](Cc2ccc(NCC(N)=O)cc2)CC(C)(C)C(=O)O)cs1)C(C)C` (racemic) [PA18, Rac-(R)-4-(2-((1S,3S)-1-acetoxy-3-((2R,3R)—N-hexyl-3-methyl-2-((S)-1-methylpiperidine-2-carboxamido)pentanamido)-4-methylpentyl)thiazole-4-carboxamido)-acid], the IC50 with HCT15 cells (setting [1]) was 0.3 nM; in the experiment on HCT15 cells (setting [2]), 0.131 nM; in the experiment with SK-BR-3 cells it was 0.067 nM.
In the case of `CCCCCCN(C(=O)[C@@H](NC(=O)[C@H]1CCCCN1CCOCCN)[C@@H](C)CC)[C@H](C[C@@H](OC(C)=O)c1nc(C(=O)N[C@@H](Cc2ccc(N)cc2)CC(C)(C)C(=O)O)cs1)C(C)C` [PA11, (4S)-4-({2-[(1R,3R)-1-(acetyloxy)-3-[(2S,3S)-2-{[(2R)-1-[2-(2-aminoethoxy)ethyl]piperidin-2-yl]formamido}-N-hexyl-3-methylpentanamido]-4-methylpentyl]-1,3-thiazol-4-yl}formamido)-5-(4-aminophenyl)-2,2-dimethylpentanoic acid], the IC50 amounted to 150 nM in the experiment with HCT15 cells (setting [1]), 5.3 nM in the experiment on HCT15 cells (setting [2]) and 15.1 nM in the experiment with SK-BR-3 cells.
Taken in the same sequence, the figures for `CCCCCCN(C(=O)[C@@H](NC(=O)[C@H]1CCCCN1C)[C@@H](C)CC)[C@H](C[C@@H](OC(=O)NCC(O)CO)c1nc(C(=O)N[C@@H](Cc2ccc(NCCO)cc2)CC(C)(C)C(=O)O)cs1)C(C)C` (stereo partly drawn) [PA27] were above 100 nM, 33.6 nM and 63.9 nM.
For `CCCCCCN(C(=O)[C@@H](NC(=O)[C@H]1CCCCN1C)[C@@H](C)CC)[C@H](C[C@@H](OC(C)=O)c1nc(C(=O)N[C@@H](Cc2ccc(NC(=O)CN)cc2)CC(C)(C)C(=O)O)cs1)C(C)C` [Compound P28, reference compound], in that order: 0.172 nM, 0.107 nM and 0.039 nM.
Take `CCCCCCN(C(=O)[C@@H](NC(=O)[C@H]1CCCCN1C)[C@@H](C)CC)[C@H](C[C@@H](NC(C)=O)c1nc(C(=O)N[C@@H](Cc2ccc(NC(=O)CN)cc2)CC(C)(C)C(=O)O)cs1)C(C)C` [PA21, (S)-4-(2-((1R,3R)-1-acetamido-3-((2S,3S)—N-hexyl-3-methyl-2-((R)-1-methylpiperidine-2-carboxamido)pentanamido)-4-methylpentyl)thiazole-4-carboxamido)-acid]: the IC50 in the experiment with HCT15 cells (setting [1]) worked out at 13.8 nM; in the experiment with HCT15 cells (setting [2]), 1.73 nM; with SK-BR-3 cells, 0.703 nM.
Regarding `CCCCCCN(C(=O)[C@@H](NC(=O)[C@@]1(C)CCCN1C(=O)CN)[C@@H](C)CC)[C@H](C[C@@H](OC(C)=O)c1nc(C(=O)N[C@@H](Cc2ccc(N)c(F)c2)CC(C)(C)C(=O)O)cs1)C(C)C` [PA1, (4S)-4-({2-[(1R,3R)-1-(acetyloxy)-3-[(2S,3S)-2-{[(2R)-1-(2-aminoacetyl)-2-methylpyrrolidin-2-yl]formamido}-N-hexyl-3-methylpentanamido]-4-methylpentyl]-1,3-thiazol-4-yl}formamido)-5-(4-amino-3-fluorophenyl)-2,2-dimethylpentanoic acid], the IC50 in the experiment on HCT15 cells (setting [1]) and with HCT15 cells (setting [2]) was above 100 nM throughout.
As for `CCCCCCN(C(=O)[C@@H](NC(=O)[C@@]1(C)CCCN1C(=O)CN)[C@@H](C)CC)[C@H](C[C@@H](OC(C)=O)c1nc(C(=O)N[C@@H](Cc2ccc(O)cc2)CC(C)(C)C(=O)O)cs1)C(C)C` [PA2, (4S)-4-({2-[(1R,3R)-1-(acetyloxy)-3-[(2S,3S)-2-{[(2R)-1-(2-aminoacetyl)-2-methylpyrrolidin-2-yl]formamido}-N-hexyl-3-methylpentanamido]-4-methylpentyl]-1,3-thiazol-4-yl}formamido)-5-(4-hydroxyphenyl)-2,2-dimethylpentanoic acid], the IC50 in the experiment on HCT15 cells (setting [1]) was above 100 nM.

The values are drawn from patent US20230414775A1, “TUBULYSINS AND PROTEIN-TUBULYSIN CONJUGATES” (priority 2021, published 2023).
